Measurements as given in patent US20190000847A1, “THERAPEUTIC AGENT FOR A WOUND” (DAIICHI SANKYO COMPANY LIMITED, priority 2015, published 2019).
Read-outs that look alike come from different tables or passages of the source.

Assays:
[1] = test system: db/db mice; settings: male db/db mice, 8 mm full thickness skin wound
Experimental: A full thickness skin wound was prepared on the backs of 9-week-old male db/db mice. The back of each mouse was shaved with an electric shaver under isoflurane anesthesia, and a full thickness skin wound of 8 mm in diameter was created on the back with a disposable biopsy punch. Compound A was administered dropwise (0.04 mL per wound site) at a concentration of 0.5 mM to the wound site once a day over 4 days from the wound creation date and protected with a dressing (Tegaderm Transparent Dressing). The negative control used was a test substance solubilizing solvent (10% Lutrol F127, 2% propylene glycol, 20 mM Tris buffer (pH 8.5)). 1, 4, 7, 9, 11, 15, and 18 days after the wound creation date, the wound site was photographed with a digital camera, and the wound area was calculated using image analysis software. When the wound area of the wound creation date was defined as 100%, the area at each day of photographing was calculated in terms of the percentage (%) of the area of the wound creation date. The test was conducted with 8 animals per group.

[2] = test system: SD rats; settings: male SD rats
Experimental: Pressure ulcer was created by pressure load on the right third trochanters of 8-week-old male SD rats. The skin on the right third trochanter of each rat was shaved with an electric shaver. A pressure of 902.3 to 911.2 g/cm^2 was loaded on the right third trochanter for 24 hours under anesthesia with pentobarbital and allobarbital. 2 days after cancellation of the pressure load, necrotic tissues were surgically removed under isoflurane anesthesia. When the necrotic tissue removal date was defined as day 1, compound A was administered dropwise (0.02 to 0.06 mL per wound site) at a concentration of 0.5 mM to the wound site once a day and protected with gauze and a waterproof film. The negative control used was a test substance solubilizing solvent (10% Lutrol F127, 2% propylene glycol, 20 mM Tris buffer (pH 8.5)). The major axis and minor axis of the wound surface were measured every day with a vernier caliper, and the wound area (major axis×minor axis) was calculated. When the wound area of day 1 was defined as 100%, the calculated area at each day was calculated in terms of the percentage (%) of the area of the wound creation date. The test was conducted with 10 animals per group.

[3] = test system: db/db mice; experiment: Test Example 2: wound healing experiment, full thickness skin wound; assay type: in vivo; settings: male db/db mice; for area under the curve (AUC) of the percent wound area / number of days required for 50% reduction in the percent wound area / 75% healing rate (proportion of individuals that achieved 75% or more reduction in the percent wound area at day 14): full thickness skin wound; for area under the curve (AUC) of the percent wound area: 0.15 mM dropwise; for number of days required for 50% reduction in the percent wound area / 75% healing rate (proportion of individuals that achieved 75% or more reduction in the percent wound area at day 14): compound B 0.15 mM dropwise; for number of days required for 50% reduction in the percent wound area: bFGF sprayed five times (approx. 30 μg), negative control 11.0 days (FIG. 4B); for 75% healing rate (proportion of individuals that achieved 75% or more reduction in the percent wound area at day 14): bFGF spray, negative control 16.7% (FIG. 4C)
Experimental: A positive control bFGF (trafermin (genetic recombination) formulation, Fiblast(trademark) spray) approved as a therapeutic agent for pressure ulcer and skin ulcer was sprayed five times (approximately 30 μg was administered per 6 cm in diameter) to the wound site from approximately 5 cm apart according to the dose regimen. […] The test was conducted with 6 animals per group.

Compound	time-dependent change in the percent wound area ([1]; 0.5 mM dropwise 0.04 mL per wound site once a day over 4 days, days 1-18, vs negative control (FIG. 1))	area under the curve (AUC) of the percent wound area ([1]; 0.5 mM dropwise once a day over 4 days, vs negative control (FIG. 2))	time dependent change in the percent wound area ([2]; pressure ulcer on right third trochanter, 0.5 mM dropwise 0.02 to 0.06 mL per wound site once a day, vs negative control (FIG. 5))	number of days required for healing ([2]; pressure ulcer, 0.5 mM dropwise once a day, negative control 25.3 days (FIG. 6B))	area under the curve (AUC) of the percent wound area ([2]; pressure ulcer, 0.5 mM dropwise once a day, vs negative control (FIG. 6A))	time dependent change in the healing rate (complete healing rate) ([2]; pressure ulcer, 0.5 mM dropwise once a day, vs negative control (FIG. 6C))	time dependent change in the percent wound area ([3]; 8 mm full thickness skin wound, 0.15 mM dropwise 0.04 mL per wound site at days 1, 2, 4, 7, 10, 14, 17, 22, vs negative control (FIG. 3))	area under the curve (AUC) of the percent wound area ([3]; compared with negative control group (FIG. 4A))	area under the curve (AUC) of the percent wound area ([3]; compared with positive control bFGF administration group (FIG. 4A))	number of days required for 50% reduction in the percent wound area [3]	75% healing rate (proportion of individuals that achieved 75% or more reduction in the percent wound area at day 14) [3]
Cc1nc(CC2CCN(c3ccc(-c4ccc(CO)cc4)cc3)CC2)nc(C(=O)NCC(=O)O)c1O [Compound A]	reduced the percent wound area at each point of evaluation, as compared with the negative control	low value as compared with AUC of the negative control group	reduced the percent wound area at each point of evaluation, as compared with the negative control	21.5 days	low value as compared with AUC of the negative control group	significant elevation in the healing rate as compared with the negative control group					
Cc1nc(CC2CCN(c3ccc(-c4ccc(C[C@H](C)O)cc4)cc3)CC2)nc(C(=O)NCC(=O)O)c1O [Compound B, [({5-Hydroxy-2-[(1-{4′-[(2S)-2-hydroxypropyl]biphenyl-4-yl}piperidin-4-yl)methyl]-6-methylpyrimidin-4-yl}carbonyl)amino]acetic acid]							reduced the percent wound area at each point of evaluation, as compared with the negative control	low value as compared with AUC of the negative control group	low value as compared with the positive control bFGF administration group	9.2 days	83.3%
bFGF: positive control bFGF (trafermin (genetic recombination) formulation, Fiblast spray) approved as a therapeutic agent for pressure ulcer and skin ulcer										10.2 days	50.0%
